{
  "source": "paper PMC9603750",
  "about": "“Chalcone-Acridine Hybrid Suppresses Melanoma Cell Progression via G2/M Cell Cycle Arrest, DNA Damage, Apoptosis, and Modulation of MAP Kinases Activity” (International Journal of Molecular Sciences, 2022)",
  "key": {"A2058": {"test_system": "A2058", "test": "MTT assay (metabolic activity)", "assay_type": "cell-based, human", "experimental": "(§1) Cell lines A2058 (human melanoma lymph node metastasis, cat. 91100402) from ECACC (Public Health England, Salisbury, UK) and BLM (human melanoma lung metastasis a gift from prof. K. Smetana, Institute of Anatomy, Charles University in Prague) were cultured in a medium consisting of high glucose Dulbecco’s Modified Eagle’s Medium (DMEM) and sodium pyruvate (GE Healthcare, Piscataway, NJ, USA). The growth medium was supplemented with a 10% fetal bovine serum (FBS) and antibiotic/antimycotic solution 1 × HyClone™ (GE Healthcare, Chicago, IL, USA). The MCF-10A (human mammary epithelial cells) cell line was cultured in a medium consisting of high glucose Dulbecco’s Modified Eagle’s Medium F12 (DMEM/F12) (Biosera, Kansas City, MO, USA). The growth medium was supplemented with a 10% FBS, antibiotic/antimycotic solution 1 × HyClone™ (GE Healthcare, Chicago, IL, USA), epidermal growth factor (EGF) (20 ng/mL final), hydrocortisone (0.5 μg/mL final) and insulin (10 μg/mL final) (Sigma-Aldrich Chemie, Steinheim, Germany). Cells were cultured in humidified air at 37 °C with atmosphere containing 5% CO2.\n(§2) The half-maximal inhibitory concentration values (IC50) and metabolism inhibition of tested synthetic chalcone derivatives were determined by MTT (3-(4,5-di-methylthiazol-2-yl)2,5-diphenyltetrazolium bromide) colorimetric assay (Sigma-Aldrich Chemie, Steinheim, Germany). Tested cell lines were seeded at a density of 5 × 10^3 cells/well in 96-well culture plates. After 24 h, the tested chalcones in concentrations of 100, 50 and 10 μmol/L were added and incubation proceeded for the next 72 h. In the next step, 10 μL of MTT (5 mg/mL) was added to each well containing cells and incubated for another 4 h at 37 °C during which MTT was metabolized to insoluble formazan in cells. After 4 h, 100 μL of a 10% sodium dodecyl sulphate (SDS) was added to each well and another 24 h were allowed for the formazan crystals to dissolve. The metabolic activity of cells was evaluated by measuring the absorbance at wavelength 540 nm using the automated Cytation™ 3 Cell Imaging Multi-Mode Reader (Biotek, Winooski, VT, USA). Three independent analyses were performed."}, "BLM": {"test_system": "BLM", "test": "MTT assay (metabolic activity)", "assay_type": "cell-based, human", "experimental": "as §1, §2"}, "BLM melanoma cells [1]": {"test_system": "BLM melanoma cells", "test": "Western blot analyses of protein expression/phosphorylation", "assay_type": "cell-based, human", "experimental": "(§3) Melanoma cells (A2058 and BLM) were treated with the tested chalcone 1C (10 μM and 20 μM) for 24, 48 and 72 h. Protein lysates from melanoma cells were prepared using a Laemmle lysis buffer containing glycerol, 1M Tris/HCl (pH 6.8), 20% sodium dodecyl sulfate (SDS), deionized H20, phosphatase and protease inhibitors (Sigma-Aldrich) and a sonication process. The protein concentrations were determined by the Pierce® BCA Protein Assay Kit (Thermo Scientific, Rockford, IL, USA) and measured by an automated Cytation™ 3 Cell Imaging Multi-Mode Reader (Biotek) at a wavelength of 570 nm. Proteins (25–40 μg of sample per well) were separated on SDS-PAA gel (12%) at 100 V for 3 h and transferred to a polyvinylidene difluoride (PVDF) membrane using the iBlot™ 2 Dry Blotting System (Invitrogen, Carlsbad, CA, USA). Membranes with transferred proteins were blocked in 5% BSA (bovine serum albumin; SERVA, Heidelberg, Germany) or 5% non-fat dry milk (Cell Signaling Technology®, Danvers, MA, USA) in TBS-Tween (pH 7.4) for 1 h at room temperature to minimise non-specific binding. Blocking was followed by incubation with primary antibodies (Table 6) overnight at 4 °C. The next day, membranes were washed in TBS-Tween (3 × 5 min) and incubated with the corresponding horseradish peroxidase (HRP)-conjugated anti-mouse or anti-rabbit secondary antibody for 1 h at room temperature. After incubation, membranes were washed again in TBS-Tween (3 × 5 min) and the expression of proteins was detected using the MF-ChemiBIS 2.0 Imaging System (DNR BIO-Imaging Systems, Jerusalem, Israel) with chemiluminescent ECL substrate (Thermo Scientific, Rockford, IL, USA). A densitometric analysis of Western Blot (WB) results was performed using the Image Studio™ Lite Software (LI-COR Biosciences, Lincoln, NE, USA). Equal loading was verified by using the β-actin antibody. Three independent analyses were performed."}, "A2058 melanoma cells [2]": {"test_system": "A2058 melanoma cells", "test": "Western blot analyses of protein expression/phosphorylation", "assay_type": "cell-based, human", "experimental": "as §3"}, "MCF-10A": {"test_system": "MCF-10A", "test": "BrdU cell proliferation assay", "assay_type": "cell-based", "details": "Homo sapiens; MCF-10A noncancer cell line"}, "BLM melanoma cells [3]": {"test_system": "BLM melanoma cells", "test": "Flow cytometric analysis of caspase-3/7 activity", "assay_type": "cell-based, human", "details": "1C 20 μmol/L, 24, 48 and 72 h", "experimental": "(§4) The A2058 and BLM melanoma cells were seeded 1 × 10^6 in Petri dishes with complete growth medium and cultivated for 24 h. After cell cultivation, the A2058 cells were treated with chalcone 1C at 10 μmol/L concentration, BLM cells at 20 μmol/L concentration and both melanoma cell lines were treated with DMSO as the negative control at the same concentrations for 24, 48 and 72 h. Adherent and floating cells were harvested, pelleted by centrifugation at 1200 rpm for 5 min. Pellets were resuspended in washing buffer (PBS) and divided for a particular analysis. Afterwards, cells were prepared according to assay kit protocols or fixed with cold 4% paraformaldehyde (15 min) and permeabilized with 90% methanol (10 min on ice) with washing steps (PBS) and stained prior to analysis (Table 5) for 15 min in the dark at room temperature. Fluorescence was detected using a BD FACSCalibur^TM Flow Cytometer (Becton Dickinson, San Jose, CA, USA)."}, "A2058 melanoma cells [4]": {"test_system": "A2058 melanoma cells", "test": "Flow cytometric analysis of caspase-3/7 activity", "assay_type": "cell-based, human", "details": "A2058, 1C 10 μmol/L, 24, 48 and 72 h", "experimental": "as §4"}, "[5]": {"details": "1C 20 μmol/L, maximum after 72 h"}, "[6]": {"details": "A2058, 1C 10 μmol/L, 24, 48 and 72 h"}},
  "data": [
    {"smiles": "COc1cccc(OC)c1C(=O)/C=C/c1c2ccccc2nc2ccccc12", "note": "[Compound 1C, (2E)-3-(acridin-9-yl)-1-(2,6-dimethoxyphenyl)prop-2-en-1-one]", "values": [
      {"measurement": "IC50", "setting": "A2058; Homo sapiens, A2058, 72 h incubation", "result": "7.96 ± 0.38", "unit": "µM"},
      {"measurement": "Selectivity index, A2058 (MTT)", "setting": "A2058; MCF-10A vs A2058, calculated on the basis of MTT results", "result": 4.6},
      {"measurement": "IC50", "setting": "BLM; Homo sapiens, BLM, 72 h incubation", "result": "17.9 ± 0.87", "unit": "µM"},
      {"measurement": "Selectivity index, BLM (MTT)", "setting": "BLM; MCF-10A vs BLM, calculated on the basis of MTT results", "result": 2.0},
      {"measurement": "Expression of p21 protein (WB)", "setting": "BLM melanoma cells [1]; 1C 20 μmol/L", "result": "showed an increase and maintained a trend"},
      {"measurement": "Levels of antiapoptotic protein Bcl-xL (WB)", "setting": "BLM melanoma cells [1]; 1C 20 μmol/L", "result": "decreased levels"},
      {"measurement": "Phosphorylation of Bad (WB)", "setting": "BLM melanoma cells [1]; 1C 20 μmol/L", "result": "increasing up to 48 h"},
      {"measurement": "Phosphorylation of Bcl-2 (WB)", "setting": "BLM melanoma cells [1]; 1C 20 μmol/L", "result": "increased up to the 72 h time point"},
      {"measurement": "Phosphorylation of Chk1 (WB)", "setting": "BLM melanoma cells [1]; 1C 20 μmol/L", "result": "consilient trend of Chk1 phosphorylation"},
      {"measurement": "Phosphorylation of ERK1/2 (WB)", "setting": "BLM melanoma cells [1]; 1C 20 μmol/L", "result": "consilient trend of ERK1/2 phosphorylation"},
      {"measurement": "Total Bcl-2 protein upregulated (WB)", "setting": "BLM melanoma cells [1]; 1C 20 μmol/L", "result": "it was not"},
      {"measurement": "p53 phosphorylation (WB)", "setting": "BLM melanoma cells [1]; 1C 20 μmol/L", "result": "phosphorylation increased late on 72 h"},
      {"measurement": "Levels of cleaved PARP (89 kDa) (WB)", "setting": "BLM melanoma cells [1]; 1C 20 μmol/L, 24, 48 and 72 h", "result": "significantly increased"},
      {"measurement": "Total p53 protein (WB)", "setting": "BLM melanoma cells [1]; 1C 20 μmol/L, 24, 48 and 72 h", "result": "maintenanted on basic levels as DMSO treated controls, with little decrease at 24 h"},
      {"measurement": "Phospho-JNK (WB)", "setting": "BLM melanoma cells [1]; 1C 20 μmol/L, all tested timepoints", "result": "significantly increased"},
      {"measurement": "Phosphorylated form of p38 MAPK (WB)", "setting": "BLM melanoma cells [1]; 1C 20 μmol/L, mainly after 48 h", "result": "significantly increased"},
      {"measurement": "Expression of α1C-tubulin (WB)", "setting": "BLM melanoma cells [1]; [5]", "result": "upregulation"},
      {"measurement": "Phosphorylated cyclin B1 (WB)", "setting": "BLM melanoma cells [1]; [5]", "result": "significant downregulation"},
      {"measurement": "Amounts of proapoptotic protein Bax and Bad (WB)", "setting": "BLM melanoma cells [1]; 1C 20 μmol/L, maximum at 48 h", "result": "significantly increased"},
      {"measurement": "Expression of α- and β-tubulin (WB)", "setting": "BLM melanoma cells [1]; 1C 20 μmol/L, time-dependent", "result": "significant downregulation"},
      {"measurement": "Levels of antiapoptotic protein Bcl-xL (WB)", "setting": "A2058 melanoma cells [2]; A2058, 1C 10 μmol/L", "result": "decreased levels"},
      {"measurement": "Phosphorylation of Bad (WB)", "setting": "A2058 melanoma cells [2]; A2058, 1C 10 μmol/L", "result": "increasing up to 48 h"},
      {"measurement": "Phosphorylation of Bcl-2 (WB)", "setting": "A2058 melanoma cells [2]; A2058, 1C 10 μmol/L", "result": "increased in A2058 up to 48 h and decreased at 72 h"},
      {"measurement": "Phosphorylation of Chk1 (WB)", "setting": "A2058 melanoma cells [2]; A2058, 1C 10 μmol/L, 24, 48 (maximum) and 72 h", "result": "significantly induced"},
      {"measurement": "Levels of cleaved PARP (89 kDa) (WB)", "setting": "A2058 melanoma cells [2]; [6]", "result": "significantly increased"},
      {"measurement": "Total and phosphorylated p53 protein (WB)", "setting": "A2058 melanoma cells [2]; [6]", "result": "significant increase"},
      {"measurement": "Expression of p21 protein (WB)", "setting": "A2058 melanoma cells [2]; A2058, 1C 10 μmol/L, after 24 and 48 h", "result": "significant increase"},
      {"measurement": "Phospho-JNK (WB)", "setting": "A2058 melanoma cells [2]; A2058, 1C 10 μmol/L, all tested timepoints", "result": "significantly increased"},
      {"measurement": "Phosphorylated form of p38 MAPK (WB)", "setting": "A2058 melanoma cells [2]; A2058, 1C 10 μmol/L, mainly after 48 h", "result": "significantly increased"},
      {"measurement": "Expression of α-, α1C- and β-tubulin (WB)", "setting": "A2058 melanoma cells [2]; A2058, 1C 10 μmol/L, maximum after 48 and 72 h", "result": "significant upregulation"},
      {"measurement": "Phosphorylation of ERK1/2 (WB)", "setting": "A2058 melanoma cells [2]; A2058, 1C 10 μmol/L, maximum after 48 h", "result": "significantly increased"},
      {"measurement": "Phosphorylated cyclin B1 (WB)", "setting": "A2058 melanoma cells [2]; A2058, 1C 10 μmol/L, maximum after 72 h", "result": "significant downregulation"},
      {"measurement": "Amounts of proapoptotic protein Bax and Bad (WB)", "setting": "A2058 melanoma cells [2]; A2058, 1C 10 μmol/L, maximum at 48 h", "result": "significantly increased"},
      {"measurement": "Total Bcl-2 protein (WB)", "setting": "A2058 melanoma cells [2]; A2058, 1C 10 μmol/L, up to 48 h", "result": "upregulated"},
      {"measurement": "IC50", "setting": "MCF-10A", "result": "32.9 ± 1.56", "unit": "µM"},
      {"measurement": "Caspase-3/7 activity in apoptotic cells", "setting": "BLM melanoma cells [3]", "result": "significant activity"},
      {"measurement": "Caspase-3/7 activity in apoptotic cells", "setting": "A2058 melanoma cells [4]", "result": "significant activity"}
    ]}
  ]
}
